Laboratory results taken from US12643910B2, “Substituted pyrazolo[3,4-b]pyridines as ectonucleotide pyrophosphatase/phosphodiesterase 1 (ENPP1) modulators” (SANFORD BURNHAM PREBYS MEDICAL DISCOVERY INSTITUTE, priority 2019, dated 2026).

Assays:
ENPP3 = target: T1, ENPP3 (Homo sapiens, UniProt O14638); experiment: ENPP3 Km ATP assay; format: biochemical; conditions: ATP at Km
T1 sequence (O14638 1-875): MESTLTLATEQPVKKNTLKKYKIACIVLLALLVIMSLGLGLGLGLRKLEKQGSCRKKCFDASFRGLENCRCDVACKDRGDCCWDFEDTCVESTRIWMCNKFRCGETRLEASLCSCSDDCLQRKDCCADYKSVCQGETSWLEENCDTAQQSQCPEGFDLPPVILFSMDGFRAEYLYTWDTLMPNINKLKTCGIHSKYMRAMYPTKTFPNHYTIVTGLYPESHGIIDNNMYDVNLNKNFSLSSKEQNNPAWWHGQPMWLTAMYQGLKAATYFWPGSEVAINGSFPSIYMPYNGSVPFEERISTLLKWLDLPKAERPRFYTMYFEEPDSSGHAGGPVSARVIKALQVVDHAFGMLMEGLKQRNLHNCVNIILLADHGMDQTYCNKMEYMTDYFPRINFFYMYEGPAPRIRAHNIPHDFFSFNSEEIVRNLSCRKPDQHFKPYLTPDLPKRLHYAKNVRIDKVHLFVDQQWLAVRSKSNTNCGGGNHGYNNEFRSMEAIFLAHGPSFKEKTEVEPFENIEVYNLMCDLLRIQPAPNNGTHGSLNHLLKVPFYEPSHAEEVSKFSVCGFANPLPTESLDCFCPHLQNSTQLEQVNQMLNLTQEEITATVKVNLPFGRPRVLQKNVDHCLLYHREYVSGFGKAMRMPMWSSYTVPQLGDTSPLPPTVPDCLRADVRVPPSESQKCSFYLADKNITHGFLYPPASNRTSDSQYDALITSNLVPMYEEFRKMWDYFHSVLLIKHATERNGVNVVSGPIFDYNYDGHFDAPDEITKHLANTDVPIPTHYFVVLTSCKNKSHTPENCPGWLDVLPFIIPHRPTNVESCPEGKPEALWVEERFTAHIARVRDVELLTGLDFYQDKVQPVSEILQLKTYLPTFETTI

human ENPP1 = target: T2, human ENPP1 (Homo sapiens, UniProt P22413); experiment: ENPP1 assay with ATP substrate (Transcreener AMP2/GMP2 TR-FRET); format: biochemical; conditions: 1 hour at room temperature
T2 construct: made in house
T2 sequence (P22413 1-925): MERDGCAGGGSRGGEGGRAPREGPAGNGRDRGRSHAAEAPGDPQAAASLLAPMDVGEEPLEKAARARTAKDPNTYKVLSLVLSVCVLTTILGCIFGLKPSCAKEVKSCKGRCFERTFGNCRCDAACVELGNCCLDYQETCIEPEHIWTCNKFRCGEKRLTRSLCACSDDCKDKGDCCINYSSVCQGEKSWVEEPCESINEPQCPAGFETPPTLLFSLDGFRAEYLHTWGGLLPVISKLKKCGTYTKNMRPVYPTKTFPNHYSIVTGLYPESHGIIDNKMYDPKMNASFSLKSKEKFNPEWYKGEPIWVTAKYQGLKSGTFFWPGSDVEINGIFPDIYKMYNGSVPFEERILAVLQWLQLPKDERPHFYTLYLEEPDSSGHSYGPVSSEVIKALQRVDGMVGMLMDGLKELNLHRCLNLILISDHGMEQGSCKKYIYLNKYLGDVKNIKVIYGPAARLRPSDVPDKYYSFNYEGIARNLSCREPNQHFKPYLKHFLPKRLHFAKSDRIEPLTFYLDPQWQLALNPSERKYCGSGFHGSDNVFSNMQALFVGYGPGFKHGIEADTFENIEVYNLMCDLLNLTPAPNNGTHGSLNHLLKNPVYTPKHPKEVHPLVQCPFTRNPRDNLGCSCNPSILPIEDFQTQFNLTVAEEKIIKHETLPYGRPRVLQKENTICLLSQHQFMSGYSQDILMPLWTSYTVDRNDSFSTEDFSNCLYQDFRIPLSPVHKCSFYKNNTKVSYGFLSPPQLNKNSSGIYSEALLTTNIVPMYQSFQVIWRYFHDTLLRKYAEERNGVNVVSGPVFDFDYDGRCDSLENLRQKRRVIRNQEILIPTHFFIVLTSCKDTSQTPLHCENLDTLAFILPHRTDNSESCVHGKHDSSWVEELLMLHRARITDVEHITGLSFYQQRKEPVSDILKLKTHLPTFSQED
Source text: Example B1: ENPP1 Assay with ATP Substrate
Ectonucleotide pyrophosphatase/phosphodiesterase 1 (ENPP1) hydrolyzes ATP, breaking it down into 5′-AMP and pyrophosphate. The 5′-AMP formed from the reaction is detected by Transcreener® AMP2/GMP2 TR-FRET Assay (Bellbrook), containing AMP-tracer (HiLyte 647) and anti-AMP Terbium (Tb) donor. 5′-AMP generated in the reaction competes with AMP-tracer for binding with Anti-AMP Tb donor, and decreases TR-FRET signal.
Different concentrations of ENPP1 inhibitors are added to dry assay plate, followed by 2 μl 300 nM ATP. The reaction is initiated with the addition of 2 μl 8.5 μM human ENPP1 (generated by SBP Protein group). The assay reaction mixture contains a buffer of 50 mM Tris, pH 7.5, 1 mM TCEP, 2 mM MgCl2, 0.005% Tween 20, and 1% DMSO. The reaction is stopped after 1 hour at room temperature by adding 2 μL of 2 nM AMP-tracer and 2 μl of 2 nM Anti-AMP Tb donor in the 50 mM Tris, pH 7.5, buffer containing 20 mM EDTA and 0.1% Prionex. After 2 hour additional incubation at room temperature, the generated signal is measured using BMG Lab PHERASTAR instrument. 100% activity control samples (containing enzyme, substrate, buffer: MAX) and no enzyme control samples (containing substrate and buffer: MIN) are utilized to calculate percent inhibition (%) for each compound concentration well (COMPOUND) as follows.
The IC50 values are determined by fitting the inhibition curves with 2-parameter variable slope model in Graphpad Prism software using percent inhibition vs compound concentration data: […]

In the case of `NS(=O)(=O)c1ccc(CNc2nc(-c3ccccn3)nc3scc(-c4ccccn4)c23)cc1` [Example 1.23, 4-(((2,5-Di(pyridin-2-yl)thieno[2,3-d]pyrimidin-4-yl)amino)methyl)benzenesulfonamide], the IC50 (ENPP3) is reported as 1 to 20 µM and the IC50 (human ENPP1) is reported as 0.1 to 1 µM.
In the case of `NS(=O)(=O)c1ccc(CNc2nc(-c3ccccc3)nc3scc(-c4ccccc4)c23)cc1` [Example 1.24, 4-(((2,5-Diphenylthieno[2,3-d]pyrimidin-4-yl)amino)methyl)benzenesulfonamide], the IC50 (ENPP3) is reported as over 20 µM and the IC50 (human ENPP1) is reported as over 20 µM.
Work on `CN1CCN(c2nc(NCc3ccc(S(N)(=O)=O)cc3)c3c(-c4ccccc4)csc3n2)CC1` [Example 1.25, 4-(((2-(4-Methylpiperazin-1-yl)-5-phenylthieno[2,3-d]pyrimidin-4-yl)amino)methyl)-benzenesulfonamide] yielded an IC50 (ENPP3) of under 0.1 µM and an IC50 (human ENPP1) of under 0.1 µM.
`NS(=O)(=O)c1ccc(CNc2nc(NC3CC3)nc3scc(-c4ccccc4)c23)cc1` [Example 1.26, 4-(((2-(Cyclopropylamino)-5-phenylthieno[2,3-d]pyrimidin-4-yl)amino)methyl)-benzenesulfonamide] showed an IC50 (ENPP3) of under 0.1 µM and an IC50 (human ENPP1) of under 0.1 µM.
`NS(=O)(=O)c1ccc(CNc2nc(-c3ccccc3)nc3scc(-c4ccccc4)c23)s1` [Example 1.27, 5-(((2,5-Diphenylthieno[2,3-d]pyrimidin-4-yl)amino)methyl)thiophene-2-sulfonamide] was tested, and the IC50 (ENPP3) was over 20 µM and the IC50 (human ENPP1) was 1 to 20 µM.
Compound `NS(=O)(=O)c1ccc(CNc2ncnc3scc(-c4ccccc4)c23)s1` [Example 1.28, 5-(((5-Phenylthieno[2,3-d]pyrimidin-4-yl)amino)methyl)thiophene-2-sulfonamide] has an IC50 (ENPP3) of over 20 µM and an IC50 (human ENPP1) of 1 to 20 µM.
Compound `NS(=O)(=O)c1ccc(CNc2nc(-c3ccncc3)nc3scc(-c4ccccc4)c23)s1` [Example 1.29, 5-(((5-Phenyl-2-(pyridin-4-yl)thieno[2,3-d]pyrimidin-4-yl)amino)methyl)thiophene-2-sulfonamide] has an IC50 (ENPP3) of over 20 µM and an IC50 (human ENPP1) of over 20 µM.
In the case of `NS(=O)(=O)c1ccc(CNc2nc(-c3cccnc3)nc3scc(-c4ccccc4)c23)s1` [Example 1.30, 5-(((5-Phenyl-2-(pyridin-3-yl)thieno[2,3-d]pyrimidin-4-yl)amino)methyl)thiophene-2-sulfonamide], the IC50 (ENPP3) is reported as over 20 µM and the IC50 (human ENPP1) is reported as 1 to 20 µM.
With `NS(=O)(=O)c1ccc(CNc2nc(-c3ccccn3)nc3scc(-c4ccccc4)c23)s1` [Example 1.31, 5-(((5-Phenyl-2-(pyridin-2-yl)thieno[2,3-d]pyrimidin-4-yl)amino)methyl)thiophene-2-sulfonamide] the IC50 (ENPP3) was 0.1 to 1 µM and the IC50 (human ENPP1) was under 0.1 µM.
`Cc1ccc(CNc2nc(-c3ccccn3)nc3scc(-c4ccccc4)c23)o1` [Example 1.32, N-((5-methylfuran-2-yl)methyl)-5-phenyl-2-(pyridin-2-yl)thieno[2,3-d]pyrimidin-4-amine] gave an IC50 (ENPP3) of over 20 µM and an IC50 (human ENPP1) of 1 to 20 µM.
Compound `c1ccc(-c2csc3nc(-c4ccccn4)nc(NCc4cccs4)c23)cc1` [Example 1.33, (5-Phenyl-2-pyridin-2-yl-thieno[2,3-d]pyrimidin-4-yl)-thiophen-2-ylmethyl-amine] has an IC50 (ENPP3) of 1 to 20 µM and an IC50 (human ENPP1) of 0.1 to 1 µM.
Compound `NS(=O)(=O)c1ccc(CNc2nc(N3CCOCC3)nc3scc(-c4ccccc4)c23)cc1` [Example 1.38, 4-(((2-Morpholino-5-phenylthieno[2,3-d]pyrimidin-4-yl)amino)methyl)-benzenesulfonamide] has an IC50 (ENPP3) of under 0.1 µM and an IC50 (human ENPP1) of under 0.1 µM.
`NS(=O)(=O)c1ccc(CNc2nc(N3CCCCC3)nc3scc(-c4ccccc4)c23)cc1` [Example 1.39, 4-(((5-Phenyl-2-(piperidin-1-yl)thieno[2,3-d]pyrimidin-4-yl)amino)methyl)-benzenesulfonamide] was tested, and the IC50 (ENPP3) was 0.1 to 1 µM and the IC50 (human ENPP1) was 0.1 to 1 µM.
`NS(=O)(=O)c1ccc(CNc2nc(NC3CCCCC3)nc3scc(-c4ccccc4)c23)cc1` [Example 1.40, 4-(((2-(Cyclohexylamino)-5-phenylthieno[2,3-d]pyrimidin-4-yl)amino)methyl)-benzenesulfonamide] showed an IC50 (ENPP3) of 1 to 20 µM and an IC50 (human ENPP1) of 0.1 to 1 µM.
`NS(=O)(=O)c1ccc(CNc2nc(NCc3ccccc3)nc3scc(-c4ccccc4)c23)cc1` [Example 1.41, 4-(((2-(Benzylamino)-5-phenylthieno[2,3-d]pyrimidin-4-yl)amino)methyl)-benzenesulfonamide] showed an IC50 (ENPP3) of 0.1 to 1 µM and an IC50 (human ENPP1) of under 0.1 µM.
`CNc1nc(NCc2ccc(S(N)(=O)=O)cc2)c2c(-c3ccccc3)csc2n1` [Example 1.42, 4-(((2-(Methylamino)-5-phenylthieno[2,3-d]pyrimidin-4-yl)amino)methyl)-benzenesulfonamide] gave an IC50 (ENPP3) of under 0.1 µM and an IC50 (human ENPP1) of under 0.1 µM.
Work on `CN(C)c1nc(NCc2ccc(S(N)(=O)=O)cc2)c2c(-c3ccccc3)csc2n1` [Example 1.43, 4-(((2-(Dimethylamino)-5-phenylthieno[2,3-d]pyrimidin-4-yl)amino)methyl)-benzenesulfonamide] yielded an IC50 (ENPP3) of 0.1 to 1 µM and an IC50 (human ENPP1) of under 0.1 µM.
Compound `Cc1nc(NCc2ccc(S(N)(=O)=O)cc2)c2c(-c3ccccc3)csc2n1` [Example 1.44, 4-(((2-Methyl-5-phenylthieno[2,3-d]pyrimidin-4-yl)amino)methyl)benzenesulfonamide] has an IC50 (ENPP3) of under 0.1 µM and an IC50 (human ENPP1) of under 0.1 µM.
Compound `Cc1nc(NCc2ccc(S(N)(=O)=O)s2)c2c(-c3ccccc3)csc2n1` [Example 1.45, 5-(((2-Methyl-5-phenylthieno[2,3-d]pyrimidin-4-yl)amino)methyl)thiophene-2-sulfonamide] has an IC50 (ENPP3) of over 20 µM and an IC50 (human ENPP1) of over 20 µM.
`NS(=O)(=O)c1ccc(CNc2ncnc3scc(-c4ccccc4)c23)cc1` [Example 1.46, 4-(((5-Phenylthieno[2,3-d]pyrimidin-4-yl)amino)methyl)benzenesulfonamide] showed an IC50 (ENPP3) of under 0.1 µM and an IC50 (human ENPP1) of under 0.1 µM.
Compound `NS(=O)(=O)c1ccc(CNc2cc(-c3ccccn3)nc3scc(-c4ccccc4)c23)cc1` [Example 1.47, 4-(((3-Phenyl-6-(pyridin-2-yl)thieno[2,3-b]pyridin-4-yl)amino)methyl)benzenesulfonamide] has an IC50 (ENPP3) of 1 to 20 µM and an IC50 (human ENPP1) of under 0.1 µM.
`NS(=O)(=O)c1ccc(CNc2ncnc3scc(Br)c23)cc1` [Example 1.49, 4-((5-Bromothieno[2,3-d]pyrimidin-4-yl)aminomethyl)benzenesulfonamide] showed an IC50 (ENPP3) of under 0.1 µM and an IC50 (human ENPP1) of 0.1 to 1 µM.
